According to PubChem BioAssay AID248 (DTP/NCI, 2004):
Several values for one entry are separate records, joined by “and”; a condition that tells them apart may be missing. Equal values may be shown once. Toxic doses and inconclusive results are not listed. Cut-off read from the data, not from the text of the source: active = T/C of 150% or more; inactive = T/C below 125%.

Tested on: L1210 leukemia ip in BDF1 mice, survival T/C
Experiment: NCI In Vivo Anticancer Drug Screen. Data for tumor model L1210 Leukemia (intraperitoneal) in B6D2F1 (BDF1) mice
Conditions: endpoint: mean survival time, higher = longer survival
How it was run: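 Ratio derived from survival: compound-dosed mice over vehicle-dosed mice, all bearing a transplantable tumor.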

[1] = dose: 100.0 mg/kg/injection, schedule: Q01DX001 (ip), vehicle: saline
[2] = dose: 200.0 mg/kg/injection, schedule: Q01DX001 (ip), vehicle: saline
[3] = dose: 400.0 mg/kg/injection, schedule: Q01DX001 (ip), vehicle: saline
[4] = dose: 100.0 mg/kg/injection, schedule: Q04DX003 (ip), vehicle: saline with Tween-80
[5] = dose: 200.0 mg/kg/injection, schedule: Q04DX003 (ip), vehicle: saline with Tween-80
[6] = dose: 400.0 mg/kg/injection, schedule: Q04DX003 (ip), vehicle: saline with Tween-80
[7] = dose: 100.0 mg/kg/injection, schedule: Q01DX009 (ip), vehicle: Klucel (hydroxypropylcellulose) (HPC)
[8] = dose: 200.0 mg/kg/injection, schedule: Q01DX009 (ip), vehicle: Klucel (hydroxypropylcellulose) (HPC)
[9] = dose: 400.0 mg/kg/injection, schedule: Q01DX009 (ip), vehicle: Klucel (hydroxypropylcellulose) (HPC)
[10] = dose: 100.0 mg/kg/injection, schedule: Q01DX009 (ip), vehicle: saline
[11] = dose: 100.0 mg/kg/injection, schedule: Q04DX003 (ip), vehicle: saline
[12] = dose: 200.0 mg/kg/injection, schedule: Q01DX009 (ip), vehicle: saline
[13] = dose: 200.0 mg/kg/injection, schedule: Q04DX003 (ip), vehicle: saline
[14] = dose: 400.0 mg/kg/injection, schedule: Q04DX003 (ip), vehicle: saline
[15] = dose: 75.0 mg/kg/injection, schedule: Q01DX001 (ip), vehicle: saline
[16] = dose: 150.0 mg/kg/injection, schedule: Q01DX001 (ip), vehicle: saline
[17] = dose: 300.0 mg/kg/injection, schedule: Q01DX001 (ip), vehicle: saline

Measured: T/C

CCCCCCCCCCCCCCBr
inactive: dose: 37.5 mg/kg/injection, schedule: Q01DX Z (ip), vehicle: carboxymethylcellulose (CMC) 100 % of control | dose: 75.0 mg/kg/injection, schedule: Q01DX Z (ip), vehicle: carboxymethylcellulose (CMC) 100 % of control | dose: 100.0 mg/kg/injection, schedule: Q01DX001 (ip), vehicle: Klucel (hydroxypropylcellulose) (HPC) 107 % of control | dose: 150.0 mg/kg/injection, schedule: Q01DX Z (ip), vehicle: carboxymethylcellulose (CMC) 100 % of control | dose: 200.0 mg/kg/injection, schedule: Q01DX001 (ip), vehicle: Klucel (hydroxypropylcellulose) (HPC) 98 % of control | dose: 300.0 mg/kg/injection, schedule: Q01DX Z (ip), vehicle: carboxymethylcellulose (CMC) 91 % of control | dose: 400.0 mg/kg/injection, schedule: Q01DX001 (ip), vehicle: Klucel (hydroxypropylcellulose) (HPC) 94 % of control

COC(=O)C1(C)CCCC2(C)c3cc(OC)c4c(c3CCC12)C(=O)CCC4 (stereo not given)
inactive: dose: 100.0 mg/kg/injection, schedule: Q01DX001 (sc), vehicle: steriod suspending solution 93 % of control | dose: 200.0 mg/kg/injection, schedule: Q01DX001 (sc), vehicle: steriod suspending solution 90 % of control | dose: 400.0 mg/kg/injection, schedule: Q01DX001 (sc), vehicle: steriod suspending solution 98 % of control

O=C(O)CCCC(=O)CCCC(=O)O
inactive: [1] 98 % of control | [2] 93 % of control | [3] 104 % of control

C=C1c2c(Cl)cccc2C(CC)(CC)c2cccc(Cl)c21
inactive: [4] 94 % of control | [5] 94 % of control | [6] 92 % of control

C=CCc1cc(CN(CCO)Cc2cc(CC=C)cc(OC)c2O)c(O)c(OC)c1
inactive: dose: 12.5 mg/kg/injection, schedule: Q04DX003 (ip), vehicle: Klucel (hydroxypropylcellulose) (HPC) 95 % of control | dose: 25.0 mg/kg/injection, schedule: Q04DX003 (ip), vehicle: Klucel (hydroxypropylcellulose) (HPC) 101 % of control | dose: 50.0 mg/kg/injection, schedule: Q04DX003 (ip), vehicle: Klucel (hydroxypropylcellulose) (HPC) 95 % of control

O=C(Nc1cc2ccccc2cc1C(=O)O)Nc1cccc2ccccc12
inactive: [7] 97 % of control | [8] 101 % of control | [9] 100 % of control

CCCCCCCCCCCCCC(CCCCCC)C1CCCCC1 (stereo not given)
inactive: dose: 100.0 mg/kg/injection, schedule: Q01DX001 (ip), vehicle: acetone 100 % of control | dose: 200.0 mg/kg/injection, schedule: Q01DX001 (ip), vehicle: acetone 106 % of control | dose: 400.0 mg/kg/injection, schedule: Q01DX001 (ip), vehicle: acetone 101 % of control

CN(C)CCN(C(=O)c1ccc(N)cc1)c1ccccc1
inactive: dose: 50.0 mg/kg/injection, schedule: Q01DX009 (ip), vehicle: saline 91 % of control | [10] 109 % of control

CC(CCOCC1CO1)OCC1CO1 (stereo not given)
inactive: [10] 101 % of control | [11] 106 % of control | [12] 113 % of control | [13] 105 % of control | dose: 400.0 mg/kg/injection, schedule: Q01DX009 (ip), vehicle: saline 120 % of control | [14] 120 % of control

COC(=O)CS(=O)(=O)C/C(=N\Nc1ccccc1)c1ccccc1
inactive: [15] 104 % of control | [16] 92 % of control | [17] 98 % of control

CCCCCC(CN(C)C)C(/C=C/c1ccccc1Cl)OC(=O)c1ccc([N+](=O)[O-])cc1 (stereo not given)
inactive: [4] 95 % of control | [5] 92 % of control | [6] 92 % of control

O=C(O)c1ccc(CNCc2ccccc2)cc1
inactive: [15] 102 % of control | [16] 96 % of control

OC/C=C\CO
inactive: [1] 97 % of control and 103 % of control | [2] 97 % of control and 100 % of control | [3] 97 % of control and 105 % of control

Cc1ccc(NC(=O)NCCBr)cc1
inactive: dose: 50.0 mg/kg/injection, schedule: Q01DX001 (ip), vehicle: carboxymethylcellulose (CMC) 101 % of control | dose: 100.0 mg/kg/injection, schedule: Q01DX001 (ip), vehicle: carboxymethylcellulose (CMC) 101 % of control | dose: 200.0 mg/kg/injection, schedule: Q01DX001 (ip), vehicle: carboxymethylcellulose (CMC) 106 % of control | dose: 400.0 mg/kg/injection, schedule: Q01DX001 (ip), vehicle: carboxymethylcellulose (CMC) 98 % of control

CCCOC(=O)c1ccc(O)cc1
inactive: [7] 87 % of control | [8] 94 % of control | [9] 102 % of control

O=C(NC(=O)c1ccccc1)Nc1cccc2ccccc12
inactive: dose: 100.0 mg/kg/injection, schedule: Q04DX002 (ip), vehicle: gum acacia 97 % of control | dose: 200.0 mg/kg/injection, schedule: Q04DX002 (ip), vehicle: gum acacia 90 % of control | dose: 400.0 mg/kg/injection, schedule: Q04DX002 (ip), vehicle: gum acacia 90 % of control

COc1ccc2c3c1OC1C(OS(=O)(=O)c4ccc(C)cc4)C=CC4C(C2)N(C)CCC341 (stereo not given)
inactive: dose: 75.0 mg/kg/injection, schedule: Q01DX001 (ip), vehicle: carboxymethylcellulose (CMC) 100 % of control | [15] 101 % of control | dose: 150.0 mg/kg/injection, schedule: Q01DX001 (ip), vehicle: carboxymethylcellulose (CMC) 97 % of control | [16] 103 % of control | dose: 300.0 mg/kg/injection, schedule: Q01DX001 (ip), vehicle: carboxymethylcellulose (CMC) 95 % of control | [17] 104 % of control

CC1CNC(=S)O1 (stereo not given)
inactive: dose: 50.0 mg/kg/injection, schedule: Q04DX003 (ip), vehicle: saline 96 % of control | [11] 98 % of control | [13] 101 % of control | [14] 108 % of control

CCOCCN1C=C/C(=C/C=C/c2cc[n+](CCOCC)c3ccccc23)c2ccccc21
inactive: dose: 0.31 mg/kg/injection, schedule: Q04DX003 (ip), vehicle: saline 98 % of control | dose: 0.45 mg/kg/injection, schedule: Q01DX009 (ip), vehicle: saline 104 % of control | dose: 0.62 mg/kg/injection, schedule: Q04DX003 (ip), vehicle: saline 121 % of control | dose: 0.9 mg/kg/injection, schedule: Q01DX009 (ip), vehicle: saline 118 % of control | dose: 1.25 mg/kg/injection, schedule: Q01DX001 (ip), vehicle: saline 96 % of control | dose: 1.25 mg/kg/injection, schedule: Q04DX003 (ip), vehicle: saline 111 % of control | dose: 1.8 mg/kg/injection, schedule: Q04DX003 (ip), vehicle: saline 98 % of control

CCCCCCCCCC(C)CCCCCC (stereo not given)
inactive: dose: 75.0 mg/kg/injection, schedule: Q01DX001 (ip), vehicle: saline with Tween-80 100 % of control | dose: 150.0 mg/kg/injection, schedule: Q01DX001 (ip), vehicle: saline with Tween-80 116 % of control | dose: 300.0 mg/kg/injection, schedule: Q01DX001 (ip), vehicle: saline with Tween-80 92 % of control

CC1(N)COP(=O)(NC2CCCC2)OC1 (stereo not given)
inactive: [1] 100 % of control | [2] 105 % of control | [3] 91 % of control

CC(N)CN(C)C (stereo not given)
inactive: [10] 98 % of control | [11] 99 % of control | [12] 106 % of control | [13] 100 % of control | [14] 96 % of control

COc1cc(C(=O)Nc2ccccc2)cc(OC)c1OC
inactive: dose: 100.0 mg/kg/injection, schedule: Q04DX002 (ip), vehicle: saline with Tween-80 102 % of control | dose: 200.0 mg/kg/injection, schedule: Q04DX002 (ip), vehicle: saline with Tween-80 98 % of control | dose: 400.0 mg/kg/injection, schedule: Q04DX002 (ip), vehicle: saline with Tween-80 95 % of control
